Values joined by “and” are separate entries in the source; they are usually repeats but may differ in a detail not shown here. Equal entries are not always repeated.
Experiment: Storage stability (purity and impurity profile) of ready-to-use tigecycline formulations at refrigeration, 2-8° C.
Format: physicochemical
Parameters: Tricyclic Impurity / Max. Unk Imp. / Oxo Impurity / Epimer Impurity / Total Impurity: unit not given here
Procedure: As used herein, and unless otherwise specified, the term “storage-stable” refers to any tigecycline-containing composition or formulation having sufficient physical and chemical stability to allow storage at a convenient temperature, such as between about 0° C. and about 50° C., for a commercially reasonable period of time. The phrase “physical stability” refers to maintenance of colour or colourless state, dissolved oxygen level, head space oxygen level and particulate matter and the phrase “chemical stability” relates to formation of drug-related impurities in terms of total impurities, single maximum individual impurity, or maximum individual unknown impurity. For pharmaceutical products, stability is required for commercially relevant times after manufacturing, such as for about 6, 12, 18, 24, or 36 months, during which time a product is kept in its original packaging under specified storage conditions. Solution A and Solution B were then further nitrogen purged for another 30 minutes and closed tightly after nitrogen flushing and covered with black cover. Solution A and solution B were stored in refrigerator (2-8° C.) for 02 hours. 100 mg tigecycline was charged in solution B followed by the addition of solution B to solution A while the solution A was kept at ice bath (e.g., about 0° C.). Now, the total 100 ml solution in the infusion bag was nitrogen purged for another 15 minutes and sealed after nitrogen flushing and stored at refrigerator (2-8° C.). […] Calcium chloride 60 mg and sodium bisulfite 2.5 mg were dissolved in 3 ml 5% dextrose for injection. The volume was made up to 5 ml with 5% dextrose solution. The solution was then nitrogen purged until dissolved oxygen reached <0.1 mg/L. 50 mg tigecycline was transferred into an amber color vial and then the 5 ml of the above solution was poured in the vial under nitrogen. The headspace of the vial was flushed through with nitrogen and packed. The vials were stored at refrigeration condition. Calcium chloride 60 mg and sodium bisulfite 2.5 mg were dissolved in 3 ml 5% dextrose. pH was adjusted to 5.5-6.0 pH range using 0.1 M meglumine solution, as required. The volume was made up to 5 ml with 5% dextrose solution. The solution was then nitrogen purged until dissolved oxygen reached <0.1 mg/L. 50 mg tigecycline was transferred into an amber colour vial and then the 5 ml of the above solution was poured in the vial under nitrogen. The headspace of the vial was flushed through with nitrogen and packed. The vials were stored at refrigeration condition. Calcium chloride 60 mg and sodium bisulfite 2.5 mg were dissolved in 3 ml 5% dextrose. pH was adjusted to 4.5-5.0 pH range using 0.1 M meglumine solution, as required. The volume was made up to 5 ml with 5% dextrose solution. The solution was then nitrogen purged until dissolved oxygen reached <0.1 mg/L. 50 mg tigecycline was transferred into an amber colour vial and then the 5 ml of the above solution was poured in the vial under nitrogen. The headspace of the vial was flushed through with nitrogen and packed. The vials were stored at refrigeration condition. Calcium chloride 60 mg and sodium bisulfite 2.5 mg were dissolved in 3 ml 0.9% NaCl Solution. The volume was made up to 5 ml with 0.9% NaCl Solution. […]

[1] = API (tigecycline before formulation)

For `CN(C)c1cc(NC(=O)CNC(C)(C)C)c(O)c2c1C[C@H]1C[C@H]3[C@H](N(C)C)C(=O)/C(=C(\N)O)C(=O)[C@@]3(O)C(=O)C1=C2O` [API, (4S,4aS,5aR,12aS)-9-[2-(tert-butylamino)acetamido]4,7-bis(dimethylamino)-1,4,4a,5,5a,6,11,12a-octahydro-3,10,12,12a-tetrahydroxy-1,11dioxo-2-naphthacenecarboxamide], the “% Purity” value [1] was 99.22% and 99.2% and 99.18%, the “Epimer Impurity” value [1] was 0.5 and 0.48 and 0.49 and the “Max. Unk Imp.” value [1] was 0.05 and 0.04. The “Oxo Impurity” value [1] was 0.02, the “Tricyclic Impurity” value [1] was 0.03 and 0.04 and 0.05 and the Purity (API (tigecycline before formulation), Tables 4A-9A) was 99.3. The “Rel. Comp. B” value (API (tigecycline before formulation), in % (unit assumed)) was 0.01 and 0.02 and the “Total Impurity” value (API column, Day 1 (tigecycline before formulation)) was 0.82.

From patent US20210205336A1, “Storage-stable ready-to-use formulations of Tigecycline” (RK Pharma Solutions LLC, priority 2019, published 2021)
